In patent publication US8916606B2, “Therapeutic compositions and methods for targeted delivery of active agents” (William Marsh Rice University, priority 2009, dated 2014):

Key:
[1] = Solubility and loading of PTX; type: physicochemical
Description: The PEG-HCCs were purified by sequential dialysis in DMF and water. This was followed by passage through a PD-10 desalting column to remove any coordinated metals or unbound PEG. […] The particles were water soluble. See Berlin et al. for AFM data.
PEG-HCCs were loaded with PTX by dropwise addition of PTX in methanol (5 mg in 1 mL) to a rapidly stirring solution of PEG-HCCs in water (100 mg/L concentration of core HCCs, 5 mL). Next, the solution was bath-sonicated, concentrated to 3 mL by rotary evaporation (to remove the methanol), and then diluted back to the original volume (5 mL) with water. This provided a translucent solution of PTX non-covalently associated with PEG-HCCs (PTX/PEG-HCCs). […] In other words, it is visually apparent if PTX is precipitating because the solution becomes a milky white color when the PTX is overloaded. Applicants have observed that the maximum loading concentration of PTX in the PEG-HCCs in the experiments performed to date is about 12 mg/mL.

[2] = system: bEnd.3 cells; assay: Antimycin A induced oxidative stress in bEnd.3 cells, DHE flow cytometry (Example 13.1); type: cell-based; settings: treatment after Antimycin A
Description: Mean fluorescence intensity (indicative of oxidative stress) was measured using as control viable cells of 4 separated experiments treated with Antimycin A (AntA) and stained with dihydroethidine (DHE) (“AntA+DHE”). Results are given as % control (unstained cells) to account for minor differences in DHE concentrations and laser fluctuations.
Accordingly, the next series of experiments employed flow cytometry to assess antioxidant effectiveness of PEG-HCCs and targeted PEG-HCCs in cultured brain endothelial cells (b.End3 cells). For these experiments, bEnd.3 cells were cultured to 50-80% confluence in 6 well plates in 2 mL of culture media. The cells were treated with 10 μL of 2 mM Antimycin A (AntA, shown to induce intracellular superoxide radical production). Five minutes later, 1×PBS, PEG-HCC, psPEG-HCC or super oxide dismutase (SOD) was added. The cells were then incubated at 37° C. for 5 minutes. At that time, either 2 μL of 10 mM DHE or a 50% DMSO solution in 1×PBS (control) was added to the wells. The cells were then incubated for another 30 minutes. Next, the cells were placed on ice, trypsinized, and washed twice. The cells were then, counted and stained with SytoxRed (viability stain). 10,000 cells were analyzed per treatment group using the TXRED channel (DHE) and SytoxRed to assess cell viability.

## CC(=O)O[C@H]1C(=O)[C@@]2(C)[C@H]([C@H](OC(=O)c3ccccc3)[C@]3(O)C[C@H](OC(=O)[C@H](O)[C@@H](NC(=O)c4ccccc4)c4ccccc4)C(C)=C1C3(C)C)[C@]1(OC(C)=O)CO[C@@H]1C[C@@H]2O [PTX, Paclitaxel]
[1]
  solubility in water: insoluble in water

## Cc1c(C)c2c(c(C)c1O)CCC(C)(C(=O)O)O2 (centres unmarked) [Trolox]
[2]
  level of oxidative stress (DHE mean fluorescence intensity): not effective
